Experimental data: publication PMC9120017, “Inhibition mechanism of the chloride channel TMEM16A by the pore blocker 1PBC” (Nature Communications, 2022)
Like-named read-outs stand apart in the source and are kept apart here.

Biological target: T1, mouse TMEM16A mutant R535A (Mus musculus, UniProt Q8BHY3, R535A)
T1 construct: expressed in transfected cells; host or cells: HEK293T
T1 sequence (Q8BHY3 1-960 R535A): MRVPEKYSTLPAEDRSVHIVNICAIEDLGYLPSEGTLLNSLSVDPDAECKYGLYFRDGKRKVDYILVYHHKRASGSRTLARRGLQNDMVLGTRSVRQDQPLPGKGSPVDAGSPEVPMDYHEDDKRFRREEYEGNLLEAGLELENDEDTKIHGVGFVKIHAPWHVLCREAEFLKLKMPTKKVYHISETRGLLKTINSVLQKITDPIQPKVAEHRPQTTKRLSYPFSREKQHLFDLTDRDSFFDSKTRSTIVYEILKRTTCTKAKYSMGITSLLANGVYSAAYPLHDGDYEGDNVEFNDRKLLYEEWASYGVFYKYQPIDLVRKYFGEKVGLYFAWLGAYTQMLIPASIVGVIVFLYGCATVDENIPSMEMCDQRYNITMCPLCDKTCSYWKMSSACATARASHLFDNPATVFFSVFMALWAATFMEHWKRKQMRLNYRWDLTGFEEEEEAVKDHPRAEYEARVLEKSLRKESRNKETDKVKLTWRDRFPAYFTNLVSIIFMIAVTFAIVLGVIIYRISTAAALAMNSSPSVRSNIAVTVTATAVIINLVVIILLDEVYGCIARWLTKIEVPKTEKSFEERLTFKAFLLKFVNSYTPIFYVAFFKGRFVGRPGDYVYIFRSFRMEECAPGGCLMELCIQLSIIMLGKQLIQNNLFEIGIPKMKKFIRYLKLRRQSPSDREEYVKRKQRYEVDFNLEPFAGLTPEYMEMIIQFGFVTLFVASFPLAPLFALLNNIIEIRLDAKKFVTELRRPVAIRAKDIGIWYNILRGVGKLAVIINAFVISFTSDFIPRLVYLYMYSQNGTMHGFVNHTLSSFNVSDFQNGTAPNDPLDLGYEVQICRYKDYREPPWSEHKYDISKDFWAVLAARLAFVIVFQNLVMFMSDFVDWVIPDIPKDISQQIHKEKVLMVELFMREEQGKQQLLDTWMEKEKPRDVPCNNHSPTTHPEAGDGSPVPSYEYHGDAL
Experiment: Inside-out patch recording of 1PBC block, mutant R535A
Type: cell-based
Details: for remaining activity at 100 µM: 100 µM 1PBC
Experimental: HEK293T cells (ATCC CRL-1573) were maintained in Dulbecco’s modified Eagle’s medium (DMEM; Sigma-Aldrich) supplemented with 10 U ml^−1 penicillin, 0.1 mg ml^−1 streptomycin (Sigma-Aldrich), 2 mM L-glutamine (Sigma-Aldrich), and 10% FBS (Sigma-Aldrich) in a humidified atmosphere containing 5% CO2 at 37 °C. HEK293S GnTI^− cells (ATCC CRL-3022) were maintained in HyClone HyCell TransFx-H medium (GE Healthcare) supplemented with 10 U ml^−1 penicillin, 0.1 mg ml^−1 streptomycin, 4 mM L-glutamine, 0.15% poloxamer 188 (Sigma-Aldrich), and 1% FBS in an atmosphere containing 5% CO2 at 185 rpm at 37 °C. The ac splice variant of mouse TMEM16A (UniProt ID: Q8BHY3), mouse TMEM16B (UniProt ID: Q8CFW1), or mouse TMEM16F (UniProt ID: Q6P9J9) bearing a 3C cleavage site, a Venus YFP, a Myc tag, and a Streptavidin-binding peptide (SBP) downstream of the open reading frame in a modified pcDNA3.1 vector (Invitrogen) were used as described previously[21],[31]. Mutations were introduced using a modified QuikChange method[58] and were verified by sequencing.
HEK293T cells were transfected with 3–4 μg DNA per 6 cm Petri dish using the calcium phosphate co-precipitation method and were used within 24–96 h after transfection. Recordings were performed on inside-out patches excised from HEK293T cells expressing the construct of interest. Patch pipettes were pulled from borosilicate glass capillaries (O.D. 1.5 mm, I.D. 0.86 mm, Sutter Instrument) and were fire-polished with a microforge (Narishige) before use. Pipette resistance was typically 3–8 MΩ when filled with the recording solutions detailed below. Seal resistance was typically 4 GΩ or higher. Voltage-clamp recordings were made using Axopatch 200B, Digidata 1550, and Clampex 10.7 (Molecular Devices). Analog signals were filtered with the in-built 4-pole Bessel filter at 10 kHz and were digitized at 20 kHz. Solution exchange was achieved using a gravity-fed system through a theta glass pipette mounted on an ultra-fast piezo-driven stepper (Siskiyou). […] All recordings were performed at 20 °C.
A symmetrical ionic condition was used throughout. Stock solution with Ca^2+-EGTA contained 150 mM NaCl, 5.99 mM Ca(OH)2, 5 mM EGTA, and 10 mM HEPES at pH 7.40. Stock solution with EGTA contained 150 mM NaCl, 5 mM EGTA, and 10 mM HEPES at pH 7.40. Free Ca^2+ concentrations were adjusted by mixing the stock solutions at the required ratios calculated using the WEBMAXC program (http://web.stanford.edu/~cpatton/webmaxcS.htm). Patch pipettes were filled with the stock solution with Ca^2+-EGTA, which has a free Ca^2+ concentration of 1 mM. 1PBC (ChemBridge) stock was reconstituted in anhydrous DMSO (Sigma-Aldrich) at 100 mM and stored at −20 °C. Working solutions with 1PBC were prepared by serial dilution. Unless otherwise stated, experiments were performed at a saturating Ca^2+ concentration as shown in Supplementary Table 1 and the primary data were corrected for current rundown as described previously[21],[25].
Concentration-response relations, obtained from the ratio of the I-V plots before and after the application of the blocker, were fitted to the Hill equation,1 I/Imax=1/1+IC50/[blocker]^h where I/Imax is the normalized current responses, IC50 defines the concentration at which inhibition is at its half-maximum, and h is the Hill coefficient.

Structure (SMILES): N#Cc1c(C(F)(F)F)cc(O)n2c1nc1ccccc12 [1PBC]
- IC50 (0 mV, 2 µM Ca2+): 11.9 µM
- remaining activity at 3 µM (3 µM 1PBC, +80 mV, saturating Ca2+ (2 µM), read-out: I/Imax): 67.6%
- remaining activity at 3 µM (3 µM 1PBC, -80 mV, saturating Ca2+ (2 µM), read-out: I/Imax): 91.3%
- remaining activity at 10 µM (10 µM 1PBC, +80 mV, saturating Ca2+ (2 µM), read-out: I/Imax): 36.9%
- remaining activity at 10 µM (10 µM 1PBC, -80 mV, saturating Ca2+ (2 µM), read-out: I/Imax): 70.8%
- remaining activity at 30 µM (30 µM 1PBC, +80 mV, saturating Ca2+ (2 µM), read-out: I/Imax): 16.6%
- remaining activity at 30 µM (30 µM 1PBC, -80 mV, saturating Ca2+ (2 µM), read-out: I/Imax): 46.3%
- remaining activity at 100 µM (+80 mV, saturating Ca2+ (2 µM), read-out: I/Imax): 5.26%
- remaining activity at 100 µM (-80 mV, saturating Ca2+ (2 µM), read-out: I/Imax): 21.3%
- remaining activity at 3 µM (1PBC 3, 0 mV, read-out: fraction of unblocked current): 80.7%
- remaining activity at 3 µM (1PBC 3, 20 mV, read-out: fraction of unblocked current): 76.3%
- remaining activity at 3 µM (1PBC 3, 40 mV, read-out: fraction of unblocked current): 72.5%
- remaining activity at 3 µM (1PBC 3, 60 mV, read-out: fraction of unblocked current): 69.3%
- remaining activity at 3 µM (1PBC 3, 80 mV, read-out: fraction of unblocked current): 67.6%
- remaining activity at 3 µM (1PBC 3, 100 mV, read-out: fraction of unblocked current): 65.8%
- remaining activity at 3 µM (1PBC 3, 120 mV, read-out: fraction of unblocked current): 66%
- remaining activity at 3 µM (1PBC 3, 140 mV, read-out: fraction of unblocked current): 66.6%
- remaining activity at 3 µM (1PBC 3, -20 mV, read-out: fraction of unblocked current): 85.2%
- remaining activity at 3 µM (1PBC 3, -40 mV, read-out: fraction of unblocked current): 87.7%
- remaining activity at 3 µM (1PBC 3, -60 mV, read-out: fraction of unblocked current): 89.5%
- remaining activity at 3 µM (1PBC 3, -80 mV, read-out: fraction of unblocked current): 91.3%
- remaining activity at 3 µM (1PBC 3, -100 mV, read-out: fraction of unblocked current): 91.1%
- remaining activity at 3 µM (1PBC 3, -120 mV, read-out: fraction of unblocked current): 92.2%
- remaining activity at 3 µM (1PBC 3, -140 mV, read-out: fraction of unblocked current): 91.6%
- remaining activity at 10 µM (1PBC 10, 0 mV, read-out: fraction of unblocked current): 53.9%
- remaining activity at 10 µM (1PBC 10, 20 mV, read-out: fraction of unblocked current): 48.3%
- remaining activity at 10 µM (1PBC 10, 40 mV, read-out: fraction of unblocked current): 43.7%
- remaining activity at 10 µM (1PBC 10, 60 mV, read-out: fraction of unblocked current): 39.8%
- remaining activity at 10 µM (1PBC 10, 80 mV, read-out: fraction of unblocked current): 36.9%
- remaining activity at 10 µM (1PBC 10, 100 mV, read-out: fraction of unblocked current): 34.6%
- remaining activity at 10 µM (1PBC 10, 120 mV, read-out: fraction of unblocked current): 34.7%
- remaining activity at 10 µM (1PBC 10, 140 mV, read-out: fraction of unblocked current): 35.9%
- remaining activity at 10 µM (1PBC 10, -20 mV, read-out: fraction of unblocked current): 59.6%
- remaining activity at 10 µM (1PBC 10, -40 mV, read-out: fraction of unblocked current): 63.3%
- remaining activity at 10 µM (1PBC 10, -60 mV, read-out: fraction of unblocked current): 67%
- remaining activity at 10 µM (1PBC 10, -80 mV, read-out: fraction of unblocked current): 70.8%
- remaining activity at 10 µM (1PBC 10, -100 mV, read-out: fraction of unblocked current): 73%
- remaining activity at 10 µM (1PBC 10, -120 mV, read-out: fraction of unblocked current): 74.7%
- remaining activity at 10 µM (1PBC 10, -140 mV, read-out: fraction of unblocked current): 75.4%
- remaining activity at 30 µM (1PBC 30, 0 mV, read-out: fraction of unblocked current): 28.6%
- remaining activity at 30 µM (1PBC 30, 20 mV, read-out: fraction of unblocked current): 24.4%
- remaining activity at 30 µM (1PBC 30, 40 mV, read-out: fraction of unblocked current): 20.9%
- remaining activity at 30 µM (1PBC 30, 60 mV, read-out: fraction of unblocked current): 18.1%
- remaining activity at 30 µM (1PBC 30, 80 mV, read-out: fraction of unblocked current): 16.6%
- remaining activity at 30 µM (1PBC 30, 100 mV, read-out: fraction of unblocked current): 15.4%
- remaining activity at 30 µM (1PBC 30, 120 mV, read-out: fraction of unblocked current): 15.7%
- remaining activity at 30 µM (1PBC 30, 140 mV, read-out: fraction of unblocked current): 16.3%
- remaining activity at 30 µM (1PBC 30, -20 mV, read-out: fraction of unblocked current): 32.7%
- remaining activity at 30 µM (1PBC 30, -40 mV, read-out: fraction of unblocked current): 36.9%
